# Test results as given in patent US6538014B1, “Process for the aggrochemical treatment of rangelands” (Bayer CropScience, Inc., priority 1992, dated 2003).
# How the values were obtained:
# Format in all cases: in vivo
# Schistocerca gregaria = assay: Grassland treatment, mortality of locusts; details: for Effectiveness (%) against the locust (Schistocerca gregaria), Persistence of action 7 DAT / Effectiveness (%) against the locust (Schistocerca gregaria), Persistence of action 14 DAT / Effectiveness (%) against the locust (Schistocerca gregaria), Persistence of action 18 DAT: infestation renewed 2 days before
# Text: One treats a zone of grassland infested at a rate of 40 locusts (Schistocerca gregaria) per m^2. For experimental purposes, the infestation is renewed 2 days before each effectiveness measurement. The results are observed by performing mortality measurements (=percentage of locusts killed). A remarkable persistence of action is observed.
# Melanoplus sanguinipes = assay: Caged grassland treatment, mortality of grasshoppers; details: for Effectiveness (%) against the grasshopper Melanoplus Sanquinipes, Persistence of Action 7 DAT / Effectiveness (%) against the grasshopper Melanoplus Sanquinipes, Persistence of Action 15 DAT / Effectiveness (%) against the grasshopper Melanoplus Sanquinipes, Persistence of Action 28 DAT: infestation renewed 2 days before
# Procedure: A zone of grassland is treated under controlled conditions, using cages to limit the space of movement of the insects. This zone is infested at a rate of 40 grasshoppers (Melanoplus sanguinipes) per m^2. For experimental purposes, the infestation is renewed 2 days before each observation of the effectiveness of the products, without performing a new insecticide treatment. The results are observed by performing mortality measurements (=percentage of grasshoppers killed). A remarkable persistence of action is observed.
# Chortoicetes terminifera = assay: Grassland treatment, mortality of locusts; details: for Effectiveness (%) against the locust Chortoicetes terminifera, Persistence of action 5 DAT / Effectiveness (%) against the locust Chortoicetes terminifera, Persistence of action 10 DAT / Effectiveness (%) against the locust Chortoicetes terminifera, Persistence of action 20 DAT / Effectiveness (%) against the locust Chortoicetes terminifera, Persistence of action 30 DAT: infestation renewed 2 days before
# Procedure: A zone of grassland infested at a rate of 40 locusts (Chortoicetes terminifera) per m2 is treated, and the infestation is renewed 2 days before each effectiveness measurement. The results are observed by performing mortality measurements (=percentage of locusts killed). A remarkable persistence of action is observed.
structure (smiles),measurement,setting,value
"N#Cc1nn(-c2c(Cl)cc(C(F)(F)F)cc2Cl)c(N)c1[S+]([O-])C(F)(F)F (centres unmarked) [Product A, 1-[2,6-dichloro-4-CF3-phenyl)-3-cyano-4-CF3SO-5-NH2-pyrazole]","Effectiveness (%) against the locust (Schistocerca gregaria), Immediate Action 1 DAT",Schistocerca gregaria; 2.5 g product A per hectare,58%
same,"Effectiveness (%) against the locust (Schistocerca gregaria), Immediate Action 2 DAT",Schistocerca gregaria; 2.5 g product A per hectare,72%
same,"Effectiveness (%) against the locust (Schistocerca gregaria), Persistence of action 7 DAT",Schistocerca gregaria; 2.5 g product A per hectare,88%
same,"Effectiveness (%) against the locust (Schistocerca gregaria), Persistence of action 14 DAT",Schistocerca gregaria; 2.5 g product A per hectare,72%
same,"Effectiveness (%) against the locust (Schistocerca gregaria), Persistence of action 18 DAT",Schistocerca gregaria; 2.5 g product A per hectare,56%
same,"Effectiveness (%) against the locust (Schistocerca gregaria), Immediate Action 1 DAT",Schistocerca gregaria; 5 g product A per hectare,82%
same,"Effectiveness (%) against the locust (Schistocerca gregaria), Immediate Action 2 DAT",Schistocerca gregaria; 5 g product A per hectare,93%
same,"Effectiveness (%) against the locust (Schistocerca gregaria), Persistence of action 7 DAT",Schistocerca gregaria; 5 g product A per hectare,100%
same,"Effectiveness (%) against the locust (Schistocerca gregaria), Persistence of action 14 DAT",Schistocerca gregaria; 5 g product A per hectare,93%
same,"Effectiveness (%) against the locust (Schistocerca gregaria), Persistence of action 18 DAT",Schistocerca gregaria; 5 g product A per hectare,89%
same,"Effectiveness (%) against the locust (Schistocerca gregaria), Immediate Action 1 DAT",Schistocerca gregaria; 10 g product A per hectare,96%
same,"Effectiveness (%) against the locust (Schistocerca gregaria), Immediate Action 2 DAT",Schistocerca gregaria; 10 g product A per hectare,100%
same,"Effectiveness (%) against the locust (Schistocerca gregaria), Persistence of action 7 DAT",Schistocerca gregaria; 10 g product A per hectare,100%
same,"Effectiveness (%) against the locust (Schistocerca gregaria), Persistence of action 14 DAT",Schistocerca gregaria; 10 g product A per hectare,98%
same,"Effectiveness (%) against the locust (Schistocerca gregaria), Persistence of action 18 DAT",Schistocerca gregaria; 10 g product A per hectare,92%
same,"Effectiveness (%) against the locust (Schistocerca gregaria), Immediate Action 1 DAT",Schistocerca gregaria; 20 g product A per hectare,100%
same,"Effectiveness (%) against the locust (Schistocerca gregaria), Immediate Action 2 DAT",Schistocerca gregaria; 20 g product A per hectare,100%
same,"Effectiveness (%) against the locust (Schistocerca gregaria), Persistence of action 7 DAT",Schistocerca gregaria; 20 g product A per hectare,100%
same,"Effectiveness (%) against the locust (Schistocerca gregaria), Persistence of action 14 DAT",Schistocerca gregaria; 20 g product A per hectare,100%
same,"Effectiveness (%) against the locust (Schistocerca gregaria), Persistence of action 18 DAT",Schistocerca gregaria; 20 g product A per hectare,98%
same,"Effectiveness (%) against the grasshopper Melanoplus Sanquinipes, Immediate Action 1 DAT",Melanoplus sanguinipes; 6.2 g Product A per hectare,87%
same,"Effectiveness (%) against the grasshopper Melanoplus Sanquinipes, Persistence of Action 7 DAT",Melanoplus sanguinipes; 6.2 g Product A per hectare,98%
same,"Effectiveness (%) against the grasshopper Melanoplus Sanquinipes, Persistence of Action 15 DAT",Melanoplus sanguinipes; 6.2 g Product A per hectare,93%
same,"Effectiveness (%) against the grasshopper Melanoplus Sanquinipes, Persistence of Action 28 DAT",Melanoplus sanguinipes; 6.2 g Product A per hectare,38%
same,"Effectiveness (%) against the grasshopper Melanoplus Sanquinipes, Immediate Action 1 DAT",Melanoplus sanguinipes; 12.5 g Product A per hectare,93%
same,"Effectiveness (%) against the grasshopper Melanoplus Sanquinipes, Persistence of Action 7 DAT",Melanoplus sanguinipes; 12.5 g Product A per hectare,100%
same,"Effectiveness (%) against the grasshopper Melanoplus Sanquinipes, Persistence of Action 15 DAT",Melanoplus sanguinipes; 12.5 g Product A per hectare,100%
same,"Effectiveness (%) against the grasshopper Melanoplus Sanquinipes, Persistence of Action 28 DAT",Melanoplus sanguinipes; 12.5 g Product A per hectare,69%
same,"Effectiveness (%) against the grasshopper Melanoplus Sanquinipes, Immediate Action 1 DAT",Melanoplus sanguinipes; 25 g Product A per hectare,98%
same,"Effectiveness (%) against the grasshopper Melanoplus Sanquinipes, Persistence of Action 7 DAT",Melanoplus sanguinipes; 25 g Product A per hectare,100%
same,"Effectiveness (%) against the grasshopper Melanoplus Sanquinipes, Persistence of Action 15 DAT",Melanoplus sanguinipes; 25 g Product A per hectare,100%
same,"Effectiveness (%) against the grasshopper Melanoplus Sanquinipes, Persistence of Action 28 DAT",Melanoplus sanguinipes; 25 g Product A per hectare,93%
same,"Effectiveness (%) against the locust Chortoicetes terminifera, Immediate Action 1 DAT Adults",Chortoicetes terminifera; 3.1 g product A per hectare,58%
same,"Effectiveness (%) against the locust Chortoicetes terminifera, Immediate Action 1 DAT Nymphs",Chortoicetes terminifera; 3.1 g product A per hectare,70%
same,"Effectiveness (%) against the locust Chortoicetes terminifera, Persistence of action 5 DAT",Chortoicetes terminifera; 3.1 g product A per hectare,96%
same,"Effectiveness (%) against the locust Chortoicetes terminifera, Persistence of action 10 DAT",Chortoicetes terminifera; 3.1 g product A per hectare,90%
same,"Effectiveness (%) against the locust Chortoicetes terminifera, Persistence of action 20 DAT",Chortoicetes terminifera; 3.1 g product A per hectare,74%
same,"Effectiveness (%) against the locust Chortoicetes terminifera, Persistence of action 30 DAT",Chortoicetes terminifera; 3.1 g product A per hectare,55%
same,"Effectiveness (%) against the locust Chortoicetes terminifera, Immediate Action 1 DAT Adults",Chortoicetes terminifera; 6.25 g product A per hectare,93%
same,"Effectiveness (%) against the locust Chortoicetes terminifera, Immediate Action 1 DAT Nymphs",Chortoicetes terminifera; 6.25 g product A per hectare,100%
same,"Effectiveness (%) against the locust Chortoicetes terminifera, Persistence of action 5 DAT",Chortoicetes terminifera; 6.25 g product A per hectare,100%
same,"Effectiveness (%) against the locust Chortoicetes terminifera, Persistence of action 10 DAT",Chortoicetes terminifera; 6.25 g product A per hectare,98%
same,"Effectiveness (%) against the locust Chortoicetes terminifera, Persistence of action 20 DAT",Chortoicetes terminifera; 6.25 g product A per hectare,93%
same,"Effectiveness (%) against the locust Chortoicetes terminifera, Persistence of action 30 DAT",Chortoicetes terminifera; 6.25 g product A per hectare,80%
same,"Effectiveness (%) against the locust Chortoicetes terminifera, Immediate Action 1 DAT Adults",Chortoicetes terminifera; 12.5 g product A per hectare,100%
same,"Effectiveness (%) against the locust Chortoicetes terminifera, Immediate Action 1 DAT Nymphs",Chortoicetes terminifera; 12.5 g product A per hectare,100%
same,"Effectiveness (%) against the locust Chortoicetes terminifera, Persistence of action 5 DAT",Chortoicetes terminifera; 12.5 g product A per hectare,100%
same,"Effectiveness (%) against the locust Chortoicetes terminifera, Persistence of action 10 DAT",Chortoicetes terminifera; 12.5 g product A per hectare,100%
same,"Effectiveness (%) against the locust Chortoicetes terminifera, Persistence of action 20 DAT",Chortoicetes terminifera; 12.5 g product A per hectare,96%
same,"Effectiveness (%) against the locust Chortoicetes terminifera, Persistence of action 30 DAT",Chortoicetes terminifera; 12.5 g product A per hectare,82%
same,"Effectiveness (%) against the locust Chortoicetes terminifera, Immediate Action 1 DAT Adults",Chortoicetes terminifera; 25 g product A per hectare,100%
same,"Effectiveness (%) against the locust Chortoicetes terminifera, Immediate Action 1 DAT Nymphs",Chortoicetes terminifera; 25 g product A per hectare,100%
same,"Effectiveness (%) against the locust Chortoicetes terminifera, Persistence of action 5 DAT",Chortoicetes terminifera; 25 g product A per hectare,100%
same,"Effectiveness (%) against the locust Chortoicetes terminifera, Persistence of action 10 DAT",Chortoicetes terminifera; 25 g product A per hectare,100%
same,"Effectiveness (%) against the locust Chortoicetes terminifera, Persistence of action 20 DAT",Chortoicetes terminifera; 25 g product A per hectare,100%
same,"Effectiveness (%) against the locust Chortoicetes terminifera, Persistence of action 30 DAT",Chortoicetes terminifera; 25 g product A per hectare,96%
